Assay results reported in patent US20260159512A1, “BCAT2 INHIBITORS” (AGIOS PHARMACEUTICALS, INC., priority 2021, published 2026).
Where “and” joins values, the source holds several entries; their conditions need not be identical. Identical values can stand only once.

Experiments:
[1] = biological target: T1, BCAT2 (Homo sapiens, UniProt O15382); experiment: BCAT2 in vitro cell inhibition using engineered A549 cells (KMV cell assay, 13C6-KMV by LC-MS/MS); assay type: cell-based; set-up: The result was an engineered A549 cell line that expressed endogenous BCAT2; endogenous in cells; host or cells: A549 cells with MUT and BCAT1 knocked out by CRISPR/CAS9; key to BCAT2 Cell Inhibition: A: less than or equal to 0.100 μM; B: greater than 0.100 and less than or equal to 0.500 μM; C: greater than 0.500 and less than or equal to 1.000 μM; d: greater than 1.000 μM; E: no fit; details: average where tested multiple times
T1 sequence (O15382 28-392): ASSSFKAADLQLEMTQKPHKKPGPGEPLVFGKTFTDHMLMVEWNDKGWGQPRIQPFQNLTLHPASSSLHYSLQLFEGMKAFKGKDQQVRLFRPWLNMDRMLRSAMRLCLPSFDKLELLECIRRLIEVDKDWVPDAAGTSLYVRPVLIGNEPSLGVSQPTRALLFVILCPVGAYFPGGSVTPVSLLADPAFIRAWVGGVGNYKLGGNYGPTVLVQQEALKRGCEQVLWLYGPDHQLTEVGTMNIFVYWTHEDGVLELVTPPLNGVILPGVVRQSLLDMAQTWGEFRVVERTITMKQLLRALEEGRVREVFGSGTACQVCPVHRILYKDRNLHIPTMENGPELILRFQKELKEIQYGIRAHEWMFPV

[2] = biological target: T1, BCAT2; experiment: BCAT2 in vitro enzyme inhibition assay (resazurin/diaphorase-coupled fluorescence); assay type: biochemical; set-up: key to BCAT2 Enzyme Inhibition: A: less than or equal to 0.100 μM; B: greater than 0.100 and less than or equal to 0.500 μM; C: greater than 0.500 and less than or equal to 1.000 μM; d: greater than 1.000 μM; E: no fit; details: average where tested multiple times
Description: BCAT2 In Vitro Enzyme Inhibition Assay
1.67× hBCAT2 Enzyme Mix: 0.33 μg/mL hBCAT2, 1× Buffer
2.5× Substrate Mix: 460 μM L-leucine, 420 μM α-KetoGlutarate, 10 U/mL glutamate dehydrogenase, 10 mM NAD, 30 μg/mL diaphorase, 20 μm Resazurin
BCAT2 enzyme stock solution was diluted to prepare a 1.67× hBCAT2 Enzyme Mix. 1 μL of test compound was first added to the reaction wells followed by 30 μL of 1.67× hBCAT2 Enzyme Mix and incubated at room temperature (25° C.) for one hour. Meanwhile the Substrate Mix was prepared. The reaction was initiated by the addition of 20 μL of the 2.5× Substrate Mix, bringing the final reaction mix of all components to 1×. Reactions were quenched after one hour by the addition of 25 μL of 6% SDS and reaction progress was measured via fluorescence read (Ex 540/Em 590).
Test Compound Preparation:
Test compounds were prepared at 50× final concentration in DMSO, 1 to 3 dilutions were made for 10 points. The compounds were added to the assay as a 1 to 50 dilution (1 μL in 50 μL) to yield a top assay final concentration of 100 μM, decreasing 3-fold for 10 points. Each compound dilution series test also included an assay max (1 μL DMSO Added in lieu of compound, Full Reaction Components Included) and Min (1 μL DMSO Added in lieu of compound, 30 μl of 1.67× hBCAT2 Enzyme Mix replated by 30 μL of 1× Buffer). All tests were performed in technical duplicate.
Where a compound was tested multiple times, the average value of the tests is reported.

SMILES	BCAT2 Cell Inhibition [1]	BCAT2 Enzyme Inhibition [2]	IC50 [1]	IC50 [2] [nM]
CO[C@@H]1[C@H](NC(=O)c2ncc(Cl)s2)CCC[C@@H]1n1c(-c2ccccc2F)nc2cnc(-c3nc[nH]n3)cc21 [Example 434, 5-chloro-N-((1R,2R,3S)-3-(2-(2-fluorophenyl)-6-(1H-1,2,4-triazol-3-yl)-1H-imidazo[4,5-c]pyridin-1-yl)-2-methoxycyclohexyl)thiazole-2-carboxamide]	E	E	–	–
CC(C)Cc1nc2cnc(-c3cccc(F)n3)cc2n1[C@@H]1C[C@@H](O)C[C@H](NC(=O)c2ncc(Cl)s2)C1 (stereo in doubt) [Example 384, 5-chloro-N-((1R,3S,5S)-3-(6-(6-fluoropyridin-2-yl)-2-isobutyl-1H-imidazo[4,5-c]pyridin-1-yl)-5-hydroxycyclohexyl)thiazole-2-carboxamide]	–	–	> 1000 nM	> 1000
CC(C)Cc1nc2cnc(-c3ccccc3CO)cc2n1[C@@H]1CCC[C@H](NC(=O)c2ncc(Cl)s2)C1 [Example 205, 5-chloro-N-((1S,3R)-3-(6-(2-(hydroxymethyl)phenyl)-2-isobutyl-1H-imidazo[4,5-c]pyridin-1-yl)cyclohexyl)thiazole-2-carboxamide]	E	–	–	> 1000
CC(C)Cc1nc2cnc(-c3cc(C(F)(F)F)n[nH]3)cc2n1[C@H]1CCC[C@@H](NC(=O)c2ncc(Cl)s2)[C@@H]1O [Example 217, 5-chloro-N-((1R,2S,3S)-2-hydroxy-3-(2-isobutyl-6-(3-(trifluoromethyl)-1H-pyrazol-5-yl)-1H-imidazo[4,5-c]pyridin-1-yl)cyclohexyl)thiazole-2-carboxamide]	E	–	–	> 1000
CC(=O)N[C@@H](c1nc2cnc(-c3nc[nH]n3)cc2n1[C@@H]1CCC[C@H](NC(=O)c2ncc(Cl)s2)C1)C(C)C [Example 369, N-((1S,3R)-3-(2-((R)-1-acetamido-2-methylpropyl)-6-(1H-1,2,4-triazol-3-yl)-1H-imidazo[4,5-c]pyridin-1-yl)cyclohexyl)-5-chlorothiazole-2-carboxamide]	E	–	–	500 to 1000
O=C(N[C@H]1CCC[C@@H](n2c(-c3ccccc3F)nc3cnc(C4CCCO4)cc32)C1)c1ncc(Cl)s1 (single isomer, unassigned) [Example 200]	E	–	–	500 to 1000
CC(C)Cc1nc2cnc(N3CCC[C@H]3C(N)=O)cc2n1[C@@H]1CCC[C@H](NC(=O)c2ncc(Cl)s2)C1 [Example 307, N-((1S,3R)-3-(6-((S)-2-carbamoylpyrrolidin-1-yl)-2-isobutyl-1H-imidazo[4,5-c]pyridin-1-yl)cyclohexyl)-5-chlorothiazole-2-carboxamide]	E	–	–	> 1000
CC(C)Cc1nc2cnc(N3CCC[C@H]3C#N)cc2n1[C@@H]1CCC[C@H](NC(=O)c2ncc(Cl)s2)C1 [Example 309, 5-chloro-N-((1S,3R)-3-(6-((S)-2-cyanopyrrolidin-1-yl)-2-isobutyl-1H-imidazo[4,5-c]pyridin-1-yl)cyclohexyl)thiazole-2-carboxamide]	E	–	–	> 1000
O=C(N[C@H]1CCC[C@@H](n2c(Oc3cc[nH]n3)nc3cnc(-c4nc[nH]n4)cc32)C1)c1ncc(Cl)s1 [Example 191, N-((1S,3R)-3-(2-((1H-pyrazol-3-yl)oxy)-6-(1H-1,2,4-triazol-3-yl)-1H-imidazo[4,5-c]pyridin-1-yl)cyclohexyl)-5-chlorothiazole-2-carboxamide]	E	–	–	> 1000
O=C(N[C@H]1CCC[C@@H](n2c(-c3ccccc3F)nc3cnc(-c4ncnn4C(F)F)cc32)C1)c1ncc(Cl)s1 [Example 376, 5-chloro-N-((1S,3R)-3-(6-(1-(difluoromethyl)-1H-1,2,4-triazol-5-yl)-2-(2-fluorophenyl)-1H-imidazo[4,5-c]pyridin-1-yl)cyclohexyl)thiazole-2-carboxamide]	E	–	–	500 to 1000
O=C(N[C@H]1CCC[C@@H](n2c(CN3CCCCC3)nc3cnc(-n4nccn4)cc32)C1)c1ncc(C(F)F)s1 [Example 95, 5-(difluoromethyl)-N-((1S,3R)-3-(2-(piperidin-1-ylmethyl)-6-(2H-1,2,3-triazol-2-yl)-1H-imidazo[4,5-c]pyridin-1-yl)cyclohexyl)thiazole-2-carboxamide]	E	–	–	> 1000
CNC(=O)c1ccc2c(c1)nc(-c1ccccn1)n2C1CC(O)CC(NC(=O)c2ncc(C(F)F)s2)C1 (stereo not shown) [Example 294, 5-(difluoromethyl)-N-(3-hydroxy-5-(5-(methylcarbamoyl)-2-(pyridin-2-yl)-1H-benzo[d]imidazol-1-yl)cyclohexyl)thiazole-2-carboxamide]	E	–	–	500 to 1000

The remaining lines, values ahead:

BCAT2 Cell Inhibition [1]	BCAT2 Enzyme Inhibition [2]	IC50 [1]	IC50 [2] [nM]	SMILES
–	–	≤ 100 nM and 100 to 500 nM	≤ 100	CO[C@@H]1C[C@H](NC(=O)c2ncc(Cl)s2)C[C@H](n2c(-c3ccccc3F)nc3cnc(-c4nc[nH]n4)cc32)C1 (stereo in doubt) [Example 419, 5-chloro-N-((1R,3S,5R)-3-(2-(2-fluorophenyl)-6-(1H-1,2,4-triazol-3-yl)-1H-imidazo[4,5-c]pyridin-1-yl)-5-methoxycyclohexyl)thiazole-2-carboxamide]
–	–	500 to 1000 nM	100 to 500	O=C(N[C@@H]1CCC[C@H](n2c(-c3ccccc3F)nc3cnc(-c4ncco4)cc32)[C@H]1O)c1ncc(Cl)s1 [Example 249, 5-chloro-N-((1R,2S,3S)-3-(2-(2-fluorophenyl)-6-(oxazol-2-yl)-1H-imidazo[4,5-c]pyridin-1-yl)-2-hydroxycyclohexyl)thiazole-2-carboxamide]
–	–	500 to 1000 nM	≤ 100	CC(C)Cc1nc2cnc(-c3ccn(C)n3)cc2n1C1CC(O)CC(NC(=O)c2ncc(Cl)s2)C1 (stereo not shown) [Example 210, 5-chloro-N-(3-hydroxy-5-(2-isobutyl-6-(1-methyl-1H-pyrazol-3-yl)-1H-imidazo[4,5-c]pyridin-1-yl)cyclohexyl)thiazole-2-carboxamide]
–	–	500 to 1000 nM	≤ 100	COC(=O)N1C[C@@H](NC(=O)c2ccc(Cl)s2)C[C@@H](n2c(-c3ccccc3F)nc3cnc(-c4nc[nH]n4)cc32)C1 [Example 463, methyl (3S,5R)-3-(5-chlorothiophene-2-carboxamido)-5-(2-(2-fluorophenyl)-6-(1H-1,2,4-triazol-3-yl)-1H-imidazo[4,5-c]pyridin-1-yl)piperidine-1-carboxylate]
E	–	–	500 to 1000	O=C(N[C@H]1CCC[C@@H](n2c(C3COCCO3)nc3cnc(-c4nc[nH]n4)cc32)C1)c1ncc(Cl)s1 (single isomer, unassigned) [Example 177]
–	–	500 to 1000 nM	100 to 500	Cc1coc(-c2cc3c(cn2)nc(-c2ccccc2F)n3[C@H]2CCC[C@@H](NC(=O)c3ncc(Cl)s3)[C@@H]2O)n1 [Example 237, 5-chloro-N-((1R,2S,3S)-3-(2-(2-fluorophenyl)-6-(4-methyloxazol-2-yl)-1H-imidazo[4,5-c]pyridin-1-yl)-2-hydroxycyclohexyl)thiazole-2-carboxamide]
–	–	> 1000 nM	≤ 100	CCn1c(CO)nn(-c2cc3c(cn2)nc(CC(C)C)n3[C@@H]2CCC[C@H](NC(=O)c3ccc(Cl)s3)C2)c1=O [Example 373, 5-chloro-N-((1S,3R)-3-(6-(4-ethyl-3-(hydroxymethyl)-5-oxo-4,5-dihydro-1H-1,2,4-triazol-1-yl)-2-isobutyl-1H-imidazo[4,5-c]pyridin-1-yl)cyclohexyl)thiophene-2-carboxamide]
–	–	≤ 100 nM	≤ 100	CO[C@@H]1C[C@@H](NC(=O)c2ncc(Cl)s2)C[C@@H](n2c(-c3ncccc3F)nc3cnc(-c4nc[nH]n4)cc32)C1 (stereo in doubt) [Example 444, 5-chloro-N-((1S,3R,5R)-3-(2-(3-fluoropyridin-2-yl)-6-(1H-1,2,4-triazol-3-yl)-1H-imidazo[4,5-c]pyridin-1-yl)-5-methoxycyclohexyl)thiazole-2-carboxamide]
